Data on 15 molecules can be found in US20250122160A1, “PROTEIN TYROSINE PHOSPHATASE INHIBITORS AND METHODS OF USE THEREOF” (Calico Life Sciences LLC, priority 0001, published 2025).

A value given as a limit tells only on which side of the number the result lay.

In assay [1] the target is T1, His tagged PTPN2 (TC45) protein (Homo sapiens, UniProt P17706).
T1 construct: made in house
T1 sequence (P17706 with tags, fused parts or gaps isoform P17706-2): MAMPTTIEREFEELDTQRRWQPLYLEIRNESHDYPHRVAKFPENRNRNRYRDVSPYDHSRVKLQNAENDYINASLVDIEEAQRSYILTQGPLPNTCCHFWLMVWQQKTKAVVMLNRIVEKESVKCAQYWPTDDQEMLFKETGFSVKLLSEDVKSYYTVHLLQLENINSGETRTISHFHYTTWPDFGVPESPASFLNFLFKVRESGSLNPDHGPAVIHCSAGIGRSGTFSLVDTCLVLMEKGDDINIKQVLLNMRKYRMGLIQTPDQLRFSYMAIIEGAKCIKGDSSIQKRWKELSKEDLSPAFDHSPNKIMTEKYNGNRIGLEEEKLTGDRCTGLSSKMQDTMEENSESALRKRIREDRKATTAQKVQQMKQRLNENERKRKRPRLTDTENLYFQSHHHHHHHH
Description: Mobility shift assay (MSA) to determine potency of PTPN2 inhibitors. In kind it is biochemical. Particulars: 0.5 nM enzyme, 2 μM substrate. An outline of the steps: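 His-tagged human PTPN2 (TC45), 0.5 nM, preincubated 10 min at room temperature with compound (12-point, 1:3 dilutions) in HEPES pH 7.5 buffer with EGTA, EDTA, Tween 20 and DTT. Then 2 μM OG488-labelled phospho-insulin-receptor peptide was added for 10 min and quenched. % conversion was read by mobility shift, and IC50 came from % inhibition.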

The target in assay [2] is T2, His tagged full-length PTPN1 protein (Homo sapiens, UniProt P18031).
T2 construct: made in house
T2 sequence (P18031 with tags, fused parts or gaps): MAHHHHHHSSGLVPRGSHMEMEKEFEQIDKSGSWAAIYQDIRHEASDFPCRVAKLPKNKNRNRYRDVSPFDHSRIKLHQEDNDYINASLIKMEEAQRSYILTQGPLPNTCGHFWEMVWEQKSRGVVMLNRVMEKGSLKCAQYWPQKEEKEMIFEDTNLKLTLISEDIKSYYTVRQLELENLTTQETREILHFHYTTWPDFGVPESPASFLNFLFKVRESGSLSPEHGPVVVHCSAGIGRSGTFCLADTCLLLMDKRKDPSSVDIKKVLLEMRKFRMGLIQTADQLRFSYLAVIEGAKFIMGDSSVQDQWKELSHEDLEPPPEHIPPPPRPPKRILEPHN
The experiment in a line: Mobility shift assay (MSA) to determine potency of PTPN1 inhibitors. Format: biochemical. Particulars: 0.5 nM enzyme, 2 μM substrate. The essentials:
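His-tagged full-length human PTPN1 (0.5 nM) preincubated with compound 10 min at room temperature in pH 7.5 HEPES buffer with EGTA, EDTA, Tween 20 and DTT. Dephosphorylation of 2 μM fluorescent phospho-insulin-receptor peptide over 10 min measured by mobility shift. IC50 from % inhibition across a 12-point, 1:3 dilution series.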

For orientation: IC50 means the concentration needed to halve the response being measured.

Take `O=C1CN(c2c(O)cc3c(c2F)CN(CCC2(C(F)(F)F)CC2)CC3)S(=O)(=O)N1` [Compound 243]: the IC50 in assay [1] and in assay [2] was 1 to 10 nM throughout.
Regarding `[2H]C1([2H])C(=O)NS(=O)(=O)N1c1c(O)cc2c(c1F)C[C@H](NCCC(C)C)CC2` [Compound 327, 5-{(7R)-1-fluoro-3-hydroxy-7-[(3-methylbutyl)amino]-5,6,7,8-tetrahydronaphthalen-2-yl}(4,4-^2H2)-1λ^6,2,5-thiadiazolidine-1,1,3-trione], the IC50 in assay [1] is under 1 nM; in assay [2], 1 to 10 nM.
On the same counts, the results for `C[C@@H](N)CN1CCc2cc(O)c(N3CC(=O)NS3(=O)=O)c(F)c2C1` [Compound 246] are 10 to 100 nM and 10 to 100 nM.
On the same counts, the results for `CCCCCN1CCc2cc(O)c(N3CC(=O)NS3(=O)=O)c(F)c2C1` [Compound 298] are 10 to 100 nM and 10 to 100 nM.
On the same counts, the results for `NCCCN1CCc2cc(O)c(N3CC(=O)NS3(=O)=O)c(F)c2C1` [Compound 218] are over 100 nM and 10 to 100 nM.
Turning to `N#CC1CC1CN[C@@H]1CCc2cc(O)c(N3CC(=O)NS3(=O)=O)c(F)c2C1` (stereo partly drawn) [Compound 353, 2-({[(2R)-8-fluoro-6-hydroxy-7-(1,1,4-trioxo-1λ^6,2,5-thiadiazolidin-2-yl)-1,2,3,4-tetrahydronaphthalen-2-yl]amino}methyl)cyclopropane-1-carbonitrile], the IC50 in assay [1] fell in the range of 1 to 10 nM; in assay [2], 10 to 100 nM.
On the same counts, the results for `Cn1cc(CCN2CCc3cc(O)c(N4CC(=O)NS4(=O)=O)c(F)c3C2)cn1` [Compound 252] are over 100 nM and over 100 nM.
As for `O=C1CN(c2c(O)cc3c(c2F)CN(CC2CC(F)(F)C2)CC3)S(=O)(=O)N1` [Compound 162], the IC50 was in the range of 1 to 10 nM in assay [1] and 10 to 100 nM in assay [2].
With `O=C1CN(c2c(O)cc3c(c2F)C[C@H](NCC2CC(c4ccccc4)C2)CO3)S(=O)(=O)N1` (stereo partly drawn) [Compound 385, 5-[(3S)-5-fluoro-7-hydroxy-3-{[(3-phenylcyclobutyl)methyl]amino}-3,4-dihydro-2H-1-benzopyran-6-yl]-1λ^6,2,5-thiadiazolidine-1,1,3-trione], the IC50 in assay [1] lay in the range of 1 to 10 nM; in assay [2], 10 to 100 nM.
Consider `O=C1CN(c2c(O)cc3c(c2F)CN(CCC2CCCCC2)CC3)S(=O)(=O)N1` [Compound 179], for which the IC50 in assay [1] and in assay [2] was 10 to 100 nM each time.
On to `CC(C)CCS(=O)(=O)NC1CCc2cc(O)c(N3CC(=O)NS3(=O)=O)c(F)c2C1` (stereo not drawn) [Compound 332, N-[8-fluoro-6-hydroxy-7-(1,1,4-trioxo-1λ^6,2,5-thiadiazolidin-2-yl)-1,2,3,4-tetrahydronaphthalen-2-yl]-3-methylbutane-1-sulfonamide], for which the IC50 in assay [1] and in assay [2] was 10 to 100 nM each time.
With `Cn1cccc1CN[C@@H]1CCc2cc(O)c(N3CC(=O)NS3(=O)=O)c(F)c2C1` [Compound 345, 5-[(7R)-1-fluoro-3-hydroxy-7-{[(1-methyl-1H-pyrrol-2-yl)methyl]amino}-5,6,7,8-tetrahydronaphthalen-2-yl]-1λ^6,2,5-thiadiazolidine-1,1,3-trione], the IC50 in assay [1] and in assay [2] was 10 to 100 nM each time.
For the molecule `O=C1CN(c2c(O)cc3c(c2F)C[C@H](NCCC2CCC2)CC3)S(=O)(=O)N1` [Compound 201], the IC50 in assay [1] and in assay [2] was under 1 nM in each case.
With `N[C@@H]1CCc2cc(O)c(N3CC(=O)NS3(=O)=O)c(F)c2[C@H]1O` [Compound 401, 5-[(7R,8R)-7-amino-1-fluoro-3,8-dihydroxy-5,6,7,8-tetrahydronaphthalen-2-yl]-1λ^6,2,5-thiadiazolidine-1,1,3-trione], the IC50 in assay [1] and in assay [2] was over 100 nM in each case.
As for `CC(C)CCN[C@H]1Cc2c(cc(O)c(N3CC(=O)NS3(=O)=O)c2F)C[C@H]1O` [Compound 393, 5-{(6R,7S)-1-fluoro-3,6-dihydroxy-7-[(3-methylbutyl)amino]-5,6,7,8-tetrahydronaphthalen-2-yl}-1λ^6,2,5-thiadiazolidine-1,1,3-trione], the IC50 in assay [1] and in assay [2] was 1 to 10 nM throughout.
